Earlier results, collected in patent US12311052B2, “Mitochondrial performance enhancement nanoemulsion method” (Quicksilver Scientific, Inc., priority 2017, dated 2025).
Where two headings read alike, the source gives them in different places.

What was measured:
[1] = consumed orally
Hepa1-6 mouse cells = conditions: 10-30 μM PQQ for 24-48 hours
cells = conditions: inhibitors rotenone, 3-nitropropionic acid, antimycin A, sodium azide
mice = conditions: PQQ deficient mice compared to PQQ supplemented mice
[2] = oral administration; extensively metabolized to glucuronide conjugate by liver and intestine

SMILES: COC1=C(OC)C(=O)C(C/C=C(\C)CC/C=C(\C)CC/C=C(\C)CC/C=C(\C)CC/C=C(\C)CC/C=C(\C)CC/C=C(\C)CC/C=C(\C)CC/C=C(\C)CCC=C(C)C)=C(C)C1=O [CoQ10, Coenzyme Q10]
- bioavailability [1]: ~10%

SMILES: O=C(O)c1cc(C(=O)O)c2c(n1)C(=O)C(=O)c1cc(C(=O)O)[nH]c1-2.[Na].[Na] [PQQ, Pyrroloquinoline quinone disodium salt]
- citrate synthase and cytochrome c oxidase activity, Mitotracker staining, mitochondrial DNA content, cellular oxygen respiration (Hepa1-6 mouse cells): increased citrate synthase and cytochrome c oxidase activity, Mitotracker staining, mitochondrial DNA content, and cellular oxygen respiration
- protection of cells from mitochondrial inhibition (cells): protect cells from mitochondrial inhibition
- reduction in the relative amount of mitochondria in the liver (mice): 20 to 30%

SMILES: Oc1ccc(/C=C/c2cc(O)cc(O)c2)cc1 [resveratrol, 3,5,4′-trihydroxy-trans-stilbene]
- bioavailability [2]: about 0.5%
